Test results from patent US20100137344A1, “INDUCTION OF ANALGESIA IN NEUROPATHIC PAIN” (University Court of the University of Edinburgh, priority 2006, published 2010).

Assays:
[1] = system: naïve rats; assay: Intrathecal application in naïve rats, behavioural reflex testing (PWL, PWT); format: in vivo, rat; conditions: icilin 10 nmol, (−)-menthol 200 nmol, data not shown
Experimental: Thermal sensitivity was assessed by measuring paw withdrawal latency (PWL, s) in response to a noxious thermal stimulus (Hargreaves' thermal stimulator, Linton Instrumentation, Diss, UK) directed to the hindpaw mid-plantar glabrous surface. Mechanical sensitivity was recorded as the paw withdrawal threshold (PWT, mN/mm^2) to calibrated von Frey filaments (Stoelting, Ill., US), as previously described^[39]. Sensitivity to noxious cold was assessed by placing animals in a waterbath with an aluminium floor containing 1 cm deep 4° C. water and counting the time the paw was held suspended over a 20 s period.
The following drugs were applied intrathecally in a 50 μl volume of saline-based vehicle at 37° C.: icilin (2.5-200 μM in saline with 0.2% dimethylformamide, DMF), LY 341495 (100 μM in saline), UBP 1112 (200 μM in saline), 2R,4R-APDC ((2R, 4R)-4-aminopyrrolidine-2,4-dicarboxylate), 300 μM in saline), ACPT-III ((1R,3R,4S)-1-aminocyclopentane-1,3,4-tricarboxylic acid), 3 mM in saline), AP-4, ((L-(1)-2-amino-4-phosphonobutyric acid), 3 mM in saline), naloxone (0.5 mM in saline), NMDA (75 μM in saline) and ACPC (1-aminocyclopropanecarboxylic acid, 15 μM in saline) (Tocris Cookson, Bristol, UK), (−)-menthol (1R,2S,5R-(−)-menthol, 4 mM in saline), cinnamaldehyde (1.5 mM in saline) and Ruthenium Red (5 μM in saline) (Sigma-Aldrich Co. Ltd, UK) and allicin (0.5 mM in saline with 0.5% DMF) and diallyl disulphide (DADS, 1 mM in saline with 0.5% DMF) (LKT Laboratories Inc., St Paul, Minn., USA). Drugs were injected into the L5/6 intrathecal space under brief halothane anaesthesia, using a 25-gauge needle microsyringe (BD Biosciences, Oxford, UK), as described previously^[39] in animals that were at peak levels of behavioural sensitisation. Behavioural reflex testing commenced 15 min following injection to allow recovery from anaesthesia^[40,41,42] and continued every 5 min thereafter until readings returned to baseline levels (n=6 in each case). We, and others^[40,41,42] find complete recovery from anaesthetic by 15 minutes. All appropriate controls were carried out to eliminate the possibility of effects due to vehicle or to injection procedure.
The TRPM8 channel activators, icilin and (−)-menthol were tested in CCI and naïve animals. The effects of icilin were additionally assessed in animals with CFA-induced inflammation or with lysolecithin-induced demyelination. Icilin was also co-administered with the μ-opioid receptor antagonist naloxone, the Group II metabotropic glutamate receptor (mGluR) antagonist, LY 341495, or the Group III mGluR antagonist, UBP 1112. The effects of these antagonists alone as well as effects of the Group II mGluR agonist, 2R,4R-APDC and the Group III mGluR agonists, ACPT-III and AP-4, were assessed in CCI animals. The TRPA1 channel activator, cinnamaldehyde, alone and with icilin, was tested in CCI animals and in naïve animals. Further TRPA1 channel activators, allicin and diallyl disulphide were assessed in naïve animals. Both icilin and cinnamaldehyde effects in CCI animals were also investigated in the additional presence of Ruthenium Red.

[2] = system: saphenous nerve afferents; assay: Saphenous nerve afferent recordings after topical application to receptive field; format: in vivo, rat
From the text: Antisense and mis-sense oligonucleotides were 22-mers with phosphorothioate bonds at the last two positions at 5′ and 3′ ends (MWG Biotech, Ebersberg, Germany). Antisense extended from base −10 to base +12 relative to the start of the open reading frame for the rat TRPM8 gene: 5′ C*T*CGAAGGACATCTTGCCGT*G*G 3′, where * represents phosphorothioate linkages. Mis-sense was designed with 4 inversions of C/G or A/T as appropriate at residues 3, 11, 14 and 22, preserving overall G/C content. BLAST searches of both oligonucleotides indicated no significant complementarity to any known gene sequence. 14-day or 7-day osmotic minipumps (for CCI experiments or naïve electrophysiology experiments respectively—Alzet Minipump, models 2002, 2001; Charles River, UK) containing oligonucleotides (1 μg/μl in sterile saline) were connected to canulae inserted under the dura of the spinal cord to level L5/6 and produced a predicted infusion rate of 0.5 μl/h. CCI surgery was performed at the same time as minipump implantation. Sensory tests were carried out to assess the time-course of behavioural sensitisation in animals which had also undergone a CCI injury. Icilin was applied topically rather than intrathecally so as to prevent any interference with the infusion canula. Peripheral nerve recordings and tissue harvesting were carried out after an interval of 4-5 days to allow time for protein knockdown.
Peripheral: Recordings of saphenous (sensory) nerve were made in naïve animals (n=7) to assess the effects of topical icilin on primary afferents. In addition, recordings were carried out on animals which had undergone TRPM8 antisense or mis-sense treatment beginning 4-5 days previously. Rats were anaesthetised (with 0.6 ml 25% urethane/100 g, i.p.) and the saphenous nerve was exposed and dissected from its associated vein and artery. Further dissection under liquid paraffin enabled identification of afferent preparations comprising a small number of fibres. The conduction velocity of single identified afferent fibres was determined using bipolar electrodes and the peripheral stimulus technique^[43]. Following isolation of preparations, icilin (200 μM in water with 0.2% DMF), (−)-menthol (4 mM in 25% ethanol) resiniferatoxin (1 mM in ethanol) or vehicle alone were applied to the hindlimb receptive fields and neuronal responses recorded using the Chart programme (version 3.6). Central: Recordings of spinal dorsal horn neurons were made in CCI animals, as described previously^[39]. Following halothane induction, the jugular vein and trachea were canulated and intravenous anaesthetic delivered: α-chloralose ([…], Fisher) and urethane ([…], Sigma), with small supplementary doses of α-chloralose as required throughout the experiment. Core body temperature was maintained at 37-38° C. by means of a thermostatically controlled heated blanket. The animal was placed in a stereotaxic frame, and the thoracolumbar spinal column was supported using three pairs of swan-necked clamps. A laminectomy was performed at L2-L5, and agar (2% in saline at 37° C.) was delivered over exposed cord to increase mechanical stability. Above the recording region the agar and spinal cord dura were removed and liquid paraffin poured into the pool. Extracellular recordings were made from single multireceptive neurons in laminae I-IV through the centre barrel of a seven-barrelled glass microelectrode filled with 4M NaCl (tip-diameter […], DC resistance 5-8 MΩ). The receptive fields of hair-follicle innervated neurons on the distal hindlimb were identified by an innocuous brush stimulus^[39]. Icilin (200 μM in water with 0.2% DMF) was applied peripherally to the receptive field of individual recorded neurons, and the effect on neuronal response to a rotating brush was recorded and analysed using Spike2 programme (Version 3.2, CED). […]

[3] = antisense-treated animals, topical icilin 200 μM, (−)-menthol 4 mM, resiniferatoxin 1 mM
[4] = mis-sense-treated animals, topical icilin 200 μM, (−)-menthol 4 mM
[5] = mis-sense-treated animals, topical icilin 200 μM, (−)-menthol 4 mM, resiniferatoxin 1 mM

SMILES | effect on reflex responses in naïve animals [1] | activation of afferents ([2]; antisense-treated animals, (−)-menthol 4 mM, 28 identified afferents recorded) | firing frequency after drug [2, 3] [Hz] | recorded fibres activated [2, 4] [%] | firing frequency after drug [2, 5] [Hz] | increase in firing frequency [2, 5] | increase in firing frequency ([2]; antisense-treated animals, topical icilin 200 μM, resiniferatoxin 1 mM) | recorded slowly conducting fibres activated ([2]; antisense-treated naïve animals, icilin 200 μM topical, 3 out of 34) [%] | recorded fine afferents with significant increase in firing frequency ([2]; icilin 200 μM to receptive field, naïve animals, 40 out of 185) [%] | effect on large myelinated mechanoreceptors ([2]; icilin 200 μM, conduction velocities 6.8-15 ms^−1, n=43) | mean time to peak effect ([2]; icilin 200 μM, naïve animals) [min] | firing frequency after drug ([2]; icilin 200 μM, naïve animals, baseline 4.5±2.5 Hz) [Hz] | mean increase in firing frequency ([2]; icilin 200 μM, naïve animals, from baseline of 4.5±2.5 Hz) [fold]
CC(C)[C@@H]1CC[C@@H](C)C[C@H]1O [(−)-menthol, 1R,2S,5R-(−)-menthol] | without effect | no obviously activated afferents | 4.8±1.9 | 20 | 38.9±7.6 | approximately 8 fold |  |  |  |  |  |  | 
O=C1NC(c2cccc([N+](=O)[O-])c2)=CCN1c1ccccc1O [icilin, 1-(2′-hydroxyphenyl)-4-(3″-nitrophenyl)-1,2,3,6-tetrahydropyrimidin-2-one] | without effect |  | 12.7±0.6 | 25 | 23.1±3.2 | 7 fold | approximately 2 fold | 8.8 | 21.6 | unaffected | 3.3 ± 0.5 | 31.6 | 7
